From patent US8658383B2, “Sweet taste receptor-expressing construct, cell body expressing the same, and utilization thereof” (T. Hasegawa Co., Ltd., priority 2009, dated 2014)
Residues, ends and D or L forms follow the SMILES beside them.

Legend:
hT1R3 = target: T1, hT1R3 (Homo sapiens, UniProt Q7RTX0); assay: Fluorescent microscope calcium imaging (Fura-2 AM) of comparison cultured cell strain (D) expressing hT1R3 and hG16gust44 only; assay type: cell-based; conditions: Aspartame final concentration 10 mM, FIG. 11
T1 construct: The sweet taste receptor subunits T1R2 and T1R3 include an entire part of each subunit
T1 sequence (Q7RTX0 21-852): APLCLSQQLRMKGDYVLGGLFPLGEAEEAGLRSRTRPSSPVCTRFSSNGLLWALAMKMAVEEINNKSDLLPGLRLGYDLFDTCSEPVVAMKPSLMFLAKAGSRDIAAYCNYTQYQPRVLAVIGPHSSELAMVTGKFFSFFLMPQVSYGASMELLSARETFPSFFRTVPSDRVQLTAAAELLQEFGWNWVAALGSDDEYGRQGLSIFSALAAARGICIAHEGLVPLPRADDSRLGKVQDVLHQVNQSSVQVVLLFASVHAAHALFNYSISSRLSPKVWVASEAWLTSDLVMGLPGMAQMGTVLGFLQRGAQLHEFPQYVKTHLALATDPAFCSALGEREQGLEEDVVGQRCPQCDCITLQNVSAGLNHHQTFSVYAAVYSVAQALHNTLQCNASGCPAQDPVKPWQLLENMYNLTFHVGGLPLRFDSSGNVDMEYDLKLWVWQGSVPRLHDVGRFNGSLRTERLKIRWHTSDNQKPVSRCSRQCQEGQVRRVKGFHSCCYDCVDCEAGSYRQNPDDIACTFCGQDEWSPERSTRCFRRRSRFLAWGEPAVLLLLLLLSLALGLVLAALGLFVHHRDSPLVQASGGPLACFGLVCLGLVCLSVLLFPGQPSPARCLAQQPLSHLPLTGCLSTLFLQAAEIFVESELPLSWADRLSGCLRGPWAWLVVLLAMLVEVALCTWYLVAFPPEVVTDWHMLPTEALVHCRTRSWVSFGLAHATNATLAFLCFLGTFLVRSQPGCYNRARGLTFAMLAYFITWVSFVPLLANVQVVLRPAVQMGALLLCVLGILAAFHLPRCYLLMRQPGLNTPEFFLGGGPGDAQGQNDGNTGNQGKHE
Protocol: Each of the cultured cell strains (A) to (C) prepared in Example 4 was loaded with a fluorescent calcium indicator Fura-2 AM, and cells were prepared to take them in. Cells loaded with Fura-2 AM were excited at 340 nm and 380 nm, and a fluorescent image observed at 510 nm was taken using a fluorescent microscope and a CCD camera. While the image was taken, Aspartame at a final concentration of 10 mM was administered to cells and, thereafter, the image was continuously taken. From the field of the taken image, 100 cells were randomly selected, and the response cell number was counted.
As comparison, using an expression construct consisting of pcDNA5/FRT having a sequence in which a cDNA encoding hT1R3 and a cDNA encoding hG16gust44 are connected downstream of a CMV promoter, so that an IRES sequence is flanked by those cDNAs (FIG. 10), a cultured cell strain (D) was prepared similarly as in Example 4, and the response cell number was subjected to counting as described above.

[1] = target: T2, human sweet taste receptor (hT1R2+hT1R3) (Homo sapiens, UniProt Q7RTX0+Q8TE23); assay: Fluorescent microscope calcium imaging (Fura-2 AM) of cultured cell strains (A) to (C); conditions: for cell response (response cell number of 100 randomly selected cells): Aspartame final concentration 10 mM, FIG. 11
T2 sequence (Q8TE23 20-839): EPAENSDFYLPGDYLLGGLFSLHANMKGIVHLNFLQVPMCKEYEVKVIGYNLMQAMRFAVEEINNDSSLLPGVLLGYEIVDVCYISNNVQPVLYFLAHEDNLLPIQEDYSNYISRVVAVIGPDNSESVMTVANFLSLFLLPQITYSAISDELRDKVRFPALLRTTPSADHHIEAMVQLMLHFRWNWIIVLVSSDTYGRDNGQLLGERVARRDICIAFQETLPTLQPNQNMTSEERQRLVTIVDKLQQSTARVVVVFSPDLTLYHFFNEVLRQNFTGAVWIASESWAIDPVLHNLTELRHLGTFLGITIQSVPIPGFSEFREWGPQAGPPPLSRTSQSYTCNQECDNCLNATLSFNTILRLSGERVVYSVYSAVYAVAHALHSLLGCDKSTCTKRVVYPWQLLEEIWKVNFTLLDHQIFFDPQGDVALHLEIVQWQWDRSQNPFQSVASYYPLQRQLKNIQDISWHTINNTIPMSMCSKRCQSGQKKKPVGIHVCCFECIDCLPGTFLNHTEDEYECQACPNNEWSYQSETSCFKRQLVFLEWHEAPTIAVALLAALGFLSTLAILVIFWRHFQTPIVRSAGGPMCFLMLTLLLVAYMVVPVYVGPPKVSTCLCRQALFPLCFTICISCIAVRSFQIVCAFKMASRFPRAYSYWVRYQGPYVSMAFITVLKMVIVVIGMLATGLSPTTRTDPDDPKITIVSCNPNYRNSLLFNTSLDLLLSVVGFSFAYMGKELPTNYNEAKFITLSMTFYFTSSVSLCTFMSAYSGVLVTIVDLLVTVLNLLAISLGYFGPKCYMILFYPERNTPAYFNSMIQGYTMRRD
T2 sequence (Q7RTX0 21-852): T1 sequence (Q7RTX0 21-852)
Protocol: Fluorescent calcium imaging using a fluorescent microscope can be performed according to the following procedure.
First, cells are suspended in a low glucose (1,000 mg/ml) DMEM medium, from which hygromycin B has been removed, and each 40 to 80 thousands cells are seeded on each well of a 96-well plate (Greiner, Lumox).
Then, after cultured at 37° C. for 24 to 48 hours, a medium is removed and is replaced with a suitable amount of a HEPES buffer, and a HEPES buffer containing a fluorescent calcium indicator (Fura-2 AM) is further added.
After incubated at 27 to 37° C. for 30 to 60 minutes, an extracellular fluorescent indicator is removed, and this is finally replaced with a suitable amount of a HEPES buffer, and is allowed to stand at room temperature for 10 to 20 minutes. By adding thereto a sweet taste substance at a particular concentration or a solution of a sweet taste substance and a substance to be tested, taste stimulation is performed at room temperature. In the fluorescent indicator Fura-2 (excitation wavelength: 340 nm/380 nm, fluorescent wavelength: 510 nm), a fluorescent intensity of excitation at 340 nm is increased, and a fluorescent intensity of excitation at 380 nm is reduced, when a calcium ion concentration is increased.
Cells loaded with Fura-2 AM were excited at 340 nm and 380 nm, and a fluorescent image observed at 510 nm was taken using a fluorescent microscope and a CCD camera. While the image was taken, Aspartame at each final concentration of 0.1 mM, 0.5 mM, 1 mM, 2 mM and 5 mM was administered to cells and then the image was continuously taken.
Cells loaded with Fura-2 AM were excited at 340 nm and 380 nm, and a fluorescent image observed at 510 nm was taken by using a fluorescent microscope and a CCD camera. While the image was taken, Sucrose at each final concentration of 20 mM, 50 mM, 100 mM, 200 mM, 500 mM and 1 M was administered to cells and then the image was continuously taken.
Cells loaded with Fura-2 AM were excited at 340 nm and 380 nm, and a fluorescent image observed at 510 nm was taken by using a fluorescent microscope and a CCD camera. While the image was taken, sucrose at final concentration of 500 mM was administered to cells and then the image was continuously taken.

[2] = target: T2, human sweet taste receptor (hT1R2+hT1R3); assay: Automated fluorescent calcium imaging (Fluo-4 AM, FlexStation 3) of cultured cell strain (A); assay type: cell-based; parameters: The sweet taste receptor subunits T1R2 and T1R3 include an entire part of each subunit; conditions: Average ± S.E., n = 2

cell response (response cell number of 100 randomly selected cells) (hT1R3): cell response was not observed
cell response (response cell number of 100 randomly selected cells) ([1]; cultured cell strain (A)): very strong cell response was observed
cell response (response cell number of 100 randomly selected cells) ([1]; cultured cell strain (B), compared with strain (A)): weaker cell response was observed
cell response (response cell number of 100 randomly selected cells) ([1]; cultured cell strain (C), compared with strain (A)): weaker cell response was observed
Change amount of fluorescent intensity (ΔF) ([2]; aspartame 0.08 mM): 4.8 ± 0.1
Change amount of fluorescent intensity (ΔF) ([2]; aspartame 5 mM): 31.1 ± 2.4
SMILES: COC(=O)[C@H](Cc1ccccc1)NC(=O)[C@@H](N)CC(=O)O [aspartame] (H-Asp-Phe-OMe)
sweet taste response (fluorescent images) ([1]; cultured cell strain (A), Aspartame in a range of 0.1 mM to 5 mM, FIG. 12): concentration-dependent sweet taste response was observed
